Assay [1] is described as follows: Antagonist activity at CCR5 in HOS cells assessed as inhibition of HIV-1 Ba-L infection.
Assay [2] in a line: Antagonist activity at CCR5 in human peripheral blood lymphocytes cells assessed as inhibition of HIV-1 Ba-L infection.

Molecules are shown by their SMILES.

By IC50 is commonly meant the point on the concentration scale where inhibition reaches its midpoint. `C=CCN(C(=O)Cc1ccc(C(N)=O)cc1)C1CCN(CCC2(c3cccc(F)c3)CCN(C(=O)c3cc(S(=O)(=O)NC(C)(C)C)c(F)cc3Cl)CC2)CC1` [4-(2-(allyl(1-(2-(1-(5-(N-tert-butylsulfamoyl)-2-chloro-4-fluorobenzoyl)-4-(3-fluorophenyl)piperidin-4-yl)ethyl)piperidin-4-yl)amino)-2-oxoethyl)benzamide]: the IC50 in assay [1] came out at 210 nM.

For `C=CCN(C(=O)Nc1ccc(OC(C)=O)cc1)C1CCN(CCC2(c3cccc(F)c3)CCN(C(=O)c3cc(S(=O)(=O)NC(C)(C)C)c(F)cc3Cl)CC2)CC1` [4-(3-allyl-3-(1-(2-(1-(5-(N-tert-butylsulfamoyl)-2-chloro-4-fluorobenzoyl)-4-(3-fluorophenyl)piperidin-4-yl)ethyl)piperidin-4-yl)ureido)phenyl acetate], the IC50 in assay [1] worked out at 60 nM.

For the compound `C=CCN(C(=O)NCc1ccc(C(N)=O)cc1)C1CCN(CCC2(c3cccc(F)c3)CCN(C(=O)c3cc(S(=O)(=O)NC(C)(C)C)c(F)cc3Cl)CC2)CC1` [4-((3-allyl-3-(1-(2-(1-(5-(N-tert-butylsulfamoyl)-2-chloro-4-fluorobenzoyl)-4-(3-fluorophenyl)piperidin-4-yl)ethyl)piperidin-4-yl)ureido)methyl)benzamide], in assay [1], the IC50 came out at 3100 nM.

Consider `C=CCN(C(=O)OCc1ccc(S(C)(=O)=O)cc1)C1CCN(CCC2(c3cccc(F)c3)CCN(C(=O)c3cc(S(=O)(=O)NC(C)(C)C)c(F)cc3Cl)CC2)CC1` [4-(methylsulfonyl)benzyl allyl(1-(2-(1-(5-(N-tert-butylsulfamoyl)-2-chloro-4-fluorobenzoyl)-4-(3-fluorophenyl)piperidin-4-yl)ethyl)piperidin-4-yl)carbamate], for which the IC50 in assay [1] is 17 nM; in assay [2], 4.5 nM.

As for `C=CCN(C(=O)OCc1ccc(OC(F)(F)F)cc1)C1CCN(CCC2(c3cccc(F)c3)CCN(C(=O)c3cc(S(=O)(=O)NC(C)(C)C)c(F)cc3Cl)CC2)CC1` [4-(trifluoromethoxy)benzyl allyl(1-(2-(1-(5-(N-tert-butylsulfamoyl)-2-chloro-4-fluorobenzoyl)-4-(3-fluorophenyl)piperidin-4-yl)ethyl)piperidin-4-yl)carbamate], the IC50 in assay [1] was 27 nM.

`C=CCN(C(=O)OCc1ccc(C(F)(F)F)cc1)C1CCN(CCC2(c3cccc(F)c3)CCN(C(=O)c3cc(S(=O)(=O)NC(C)(C)C)c(F)cc3Cl)CC2)CC1` [4-(trifluoromethyl)benzyl allyl(1-(2-(1-(5-(N-tert-butylsulfamoyl)-2-chloro-4-fluorobenzoyl)-4-(3-fluorophenyl)piperidin-4-yl)ethyl)piperidin-4-yl)carbamate]: the IC50 is 15 nM in assay [1] and 40 nM in assay [2].

For the compound `C=CCN(C(=O)OCc1ccc(C#N)cc1)C1CCN(CCC2(c3cccc(F)c3)CCN(C(=O)c3cc(S(=O)(=O)NC(C)(C)C)c(F)cc3Cl)CC2)CC1` [4-cyanobenzyl allyl(1-(2-(1-(5-(N-tert-butylsulfamoyl)-2-chloro-4-fluorobenzoyl)-4-(3-fluorophenyl)piperidin-4-yl)ethyl)piperidin-4-yl)carbamate], the IC50 in assay [1] amounted to 4.5 nM.

Turning to `C=CCN(C(=O)OCc1ccc(F)cc1)C1CCN(CCC2(c3cccc(F)c3)CCN(C(=O)c3cc(S(=O)(=O)NC(C)(C)C)c(F)cc3Cl)CC2)CC1` [4-fluorobenzyl allyl(1-(2-(1-(5-(N-tert-butylsulfamoyl)-2-chloro-4-fluorobenzoyl)-4-(3-fluorophenyl)piperidin-4-yl)ethyl)piperidin-4-yl)carbamate], the IC50 in assay [1] came out at 22 nM.

For the compound `C=CCN(C(=O)OCc1ccc([N+](=O)[O-])cc1)C1CCN(CCC2(c3cccc(F)c3)CCN(C(=O)c3cc(S(=O)(=O)NC(C)(C)C)c(F)cc3Cl)CC2)CC1` [4-nitrobenzyl allyl(1-(2-(1-(5-(N-tert-butylsulfamoyl)-2-chloro-4-fluorobenzoyl)-4-(3-fluorophenyl)piperidin-4-yl)ethyl)piperidin-4-yl)carbamate], the IC50 was 8.6 nM in assay [1] and 24 nM in assay [2].

`C=CCN(C(=O)Nc1ccc(S(C)(=O)=O)cc1)C1CCN(CCC2(c3cccc(F)c3)CCN(C(=O)c3cc(S(=O)(=O)NC(C)(C)C)c(F)cc3Cl)CC2)CC1` [5-(4-(2-(4-(1-allyl-3-(4-(methylsulfonyl)phenyl)ureido)piperidin-1-yl)ethyl)-4-(3-fluorophenyl)piperidine-1-carbonyl)-N-tert-butyl-4-chloro-2-fluorobenzenesulfonamide]: the IC50 worked out at 11.5 nM in assay [1] and 35 nM in assay [2].

Consider `C=CCN(C(=O)NCc1ccc(C(F)(F)F)cc1)C1CCN(CCC2(c3cccc(F)c3)CCN(C(=O)c3cc(S(=O)(=O)NC(C)(C)C)c(F)cc3Cl)CC2)CC1` [5-(4-(2-(4-(1-allyl-3-(4-(trifluoromethyl)benzyl)ureido)piperidin-1-yl)ethyl)-4-(3-fluorophenyl)piperidine-1-carbonyl)-N-tert-butyl-4-chloro-2-fluorobenzenesulfonamide], for which the values for the IC50 in assay [1] and in assay [2] were 6.9 nM and 42 nM, respectively.

In the case of `C=CCN(C(=O)Nc1ccc(C(F)(F)F)cc1)C1CCN(CCC2(c3cccc(F)c3)CCN(C(=O)c3cc(S(=O)(=O)NC(C)(C)C)c(F)cc3Cl)CC2)CC1` [5-(4-(2-(4-(1-allyl-3-(4-(trifluoromethyl)phenyl)ureido)piperidin-1-yl)ethyl)-4-(3-fluorophenyl)piperidine-1-carbonyl)-N-tert-butyl-4-chloro-2-fluorobenzenesulfonamide], the IC50 in assay [1] worked out at 64 nM.

For `C=CCN(C(=O)NCc1ccc(C#N)cc1)C1CCN(CCC2(c3cccc(F)c3)CCN(C(=O)c3cc(S(=O)(=O)NC(C)(C)C)c(F)cc3Cl)CC2)CC1` [5-(4-(2-(4-(1-allyl-3-(4-cyanobenzyl)ureido)piperidin-1-yl)ethyl)-4-(3-fluorophenyl)piperidine-1-carbonyl)-N-tert-butyl-4-chloro-2-fluorobenzenesulfonamide], the IC50 is 3.9 nM in assay [1] and 3.7 nM in assay [2].

On to `C=CCN(C(=O)Nc1ccc(C#N)cc1)C1CCN(CCC2(c3cccc(F)c3)CCN(C(=O)c3cc(S(=O)(=O)NC(C)(C)C)c(F)cc3Cl)CC2)CC1` [5-(4-(2-(4-(1-allyl-3-(4-cyanophenyl)ureido)piperidin-1-yl)ethyl)-4-(3-fluorophenyl)piperidine-1-carbonyl)-N-tert-butyl-4-chloro-2-fluorobenzenesulfonamide], for which the IC50 stood at 20.5 nM in assay [1] and 25 nM in assay [2].

Regarding `C=CCN(C(=O)NCc1ccc(F)cc1)C1CCN(CCC2(c3cccc(F)c3)CCN(C(=O)c3cc(S(=O)(=O)NC(C)(C)C)c(F)cc3Cl)CC2)CC1` [5-(4-(2-(4-(1-allyl-3-(4-fluorobenzyl)ureido)piperidin-1-yl)ethyl)-4-(3-fluorophenyl)piperidine-1-carbonyl)-N-tert-butyl-4-chloro-2-fluorobenzenesulfonamide], the IC50 in assay [1] turned out to be 46 nM.

Consider `C=CCN(C(=O)Nc1ccc(F)cc1)C1CCN(CCC2(c3cccc(F)c3)CCN(C(=O)c3cc(S(=O)(=O)NC(C)(C)C)c(F)cc3Cl)CC2)CC1` [5-(4-(2-(4-(1-allyl-3-(4-fluorophenyl)ureido)piperidin-1-yl)ethyl)-4-(3-fluorophenyl)piperidine-1-carbonyl)-N-tert-butyl-4-chloro-2-fluorobenzenesulfonamide], for which the IC50 in assay [1] amounted to 34 nM.

For the compound `C=CCN(C(=O)CCc1ccc(OC(F)(F)F)cc1)C1CCN(CCC2(c3cccc(F)c3)CCN(C(=O)c3cc(S(=O)(=O)NC)c(F)cc3Cl)CC2)CC1` [N-allyl-N-(1-(2-(1-(2-chloro-4-fluoro-5-(N-methylsulfamoyl)benzoyl)-4-(3-fluorophenyl)piperidin-4-yl)ethyl)piperidin-4-yl)-3-(4-(trifluoromethoxy)phenyl)propanamide], the IC50 in assay [1] was determined as 420 nM.

For `C=CCN(C(=O)CCc1ccc(C#N)cc1)C1CCN(CCC2(c3cccc(F)c3)CCN(C(=O)c3cc(S(=O)(=O)NC)c(F)cc3Cl)CC2)CC1` [N-allyl-N-(1-(2-(1-(2-chloro-4-fluoro-5-(N-methylsulfamoyl)benzoyl)-4-(3-fluorophenyl)piperidin-4-yl)ethyl)piperidin-4-yl)-3-(4-cyanophenyl)propanamide], in assay [1], the IC50 turned out to be 150 nM.

Take `C=CCN(C(=O)Cc1ccc(S(C)(=O)=O)cc1)C1CCN(CCC2(c3cccc(F)c3)CCN(C(=O)c3cc(S(=O)(=O)NC(C)(C)C)c(F)cc3Cl)CC2)CC1` [N-allyl-N-(1-(2-(1-(5-(N-tert-butylsulfamoyl)-2-chloro-4-fluorobenzoyl)-4-(3-fluorophenyl)piperidin-4-yl)ethyl)piperidin-4-yl)-2-(4-(methylsulfonyl)phenyl)acetamide]: in assay [1], the IC50 was 65 nM.

Consider `C=CCN(C(=O)Cc1ccc(OC(F)(F)F)cc1)C1CCN(CCC2(c3cccc(F)c3)CCN(C(=O)c3cc(S(=O)(=O)NC(C)(C)C)c(F)cc3Cl)CC2)CC1` [N-allyl-N-(1-(2-(1-(5-(N-tert-butylsulfamoyl)-2-chloro-4-fluorobenzoyl)-4-(3-fluorophenyl)piperidin-4-yl)ethyl)piperidin-4-yl)-2-(4-(trifluoromethoxy)phenyl)acetamide], for which the IC50 in assay [1] came to 18 nM; in assay [2], 87 nM.

On to `C=CCN(C(=O)Cc1ccc(F)cc1)C1CCN(CCC2(c3cccc(F)c3)CCN(C(=O)c3cc(S(=O)(=O)NC(C)(C)C)c(F)cc3Cl)CC2)CC1` [N-allyl-N-(1-(2-(1-(5-(N-tert-butylsulfamoyl)-2-chloro-4-fluorobenzoyl)-4-(3-fluorophenyl)piperidin-4-yl)ethyl)piperidin-4-yl)-2-(4-fluorophenyl)acetamide], for which the concentration for half-maximal inhibition (IC50) in assay [1] was determined as 52 nM.

Take `C=CCN(C(=O)OCc1ccc(C(=O)OC)cc1)C1CCN(CCC2(c3cccc(F)c3)CCN(C(=O)c3cc(S(=O)(=O)NC(C)(C)C)c(F)cc3Cl)CC2)CC1` [methyl 4-((allyl(1-(2-(1-(5-(N-tert-butylsulfamoyl)-2-chloro-4-fluorobenzoyl)-4-(3-fluorophenyl)piperidin-4-yl)ethyl)piperidin-4-yl)carbamoyloxy)methyl)benzoate]: the IC50 in assay [1] was found to be 41 nM.

Values taken from BindingDB's records for doi:10.1016/j.bmcl.2010.10.033 (Glaxosmithkline, 2010).
